Experimental data reported in patent publication US8383637B2, “2-amino-quinazoline derivatives useful as inhibitors of β-secretase (BACE)” (Jansssen Pharmaceutica N.V., priority 2004, dated 2013).
Where two headings read alike, the source gives them in different places.

Target: T1, β-secretase(BACE) (Homo sapiens, UniProt P56817)
T1 construct: purchased Panvera
Assay: BACE FS1% Inhibition Assay
Format: biochemical
Details: FS1 substrate
Method: BACE FS1% Inhibition Assay The following reagents were used in this assay: sodium acetate, PEG8000 (Sigma), DMSO, HEPES, FS1 substrate [[…]] […] The FS1-substrate stock solution was prepared in DMSO as a 10 mg/mL solution. The FS1-substrate working solution was prepared by diluting the 10 mg/mL stock solution with substrate assay buffer to a final concentration of 300 μg/mL. The β-secretase (BACE) working solution was prepared by diluting a 0.83 mg/mL BACE stock solution with enzyme assay buffer to a final concentration of 4 μg/mL. Test compounds were dissolved in DMSO to 10 mM. […] The screening procedure for this assay was as follows: 15 μL of BACE working solution was pipetted into each well of a 96-well plate. To each well was then pipetted 2 μL of test compound at the selected concentration. Test compound and BACE were then mixed with a pipettor and incubated for 20 min at room temperature. To each well was then added 10 μL of the FS1 substrate working solution. The plates were then incubated for 1 hour at room temperature. […] The procedure for the blank was as follows. 15 μL of assay buffer was pipetted into each well to be used as a blank control. To each well was then added 2 μL of vehicle and 10 μL of FS1-substrate working solution. The plates were then incubated for 1 hour at room temperature. […] The procedure for the positive control was as follows: 15 μL of BACE working solution was pipetted into each well to be used as a positive control. To each well was then pipetted 2 μL of vehicle. Vehicle and BACE were then mixed with a pipettor and incubated for 20 min at room temperature. To each well was then added 10 μL of the FS1 substrate working solution. The plates were then incubated for 1 hour at room temperature. […] For test compounds, % inhibition was determined at each concentration as follows: [formula]

[1] = 0.3 μM test compound, read-out: % Inhibition (FS)
[2] = 1 μM test compound, read-out: % Inhibition (FS)
[3] = 3 μM test compound, read-out: % Inhibition (FS)
[4] = 0.3 μM test compound, read-out: % Inhibition (FS) 0.3 μM
[5] = 1 μM test compound, read-out: % Inhibition (FS) 1 μM
[6] = 3 μM test compound, read-out: % Inhibition (FS) 3 μM

T1 sequence (P56817 46-501): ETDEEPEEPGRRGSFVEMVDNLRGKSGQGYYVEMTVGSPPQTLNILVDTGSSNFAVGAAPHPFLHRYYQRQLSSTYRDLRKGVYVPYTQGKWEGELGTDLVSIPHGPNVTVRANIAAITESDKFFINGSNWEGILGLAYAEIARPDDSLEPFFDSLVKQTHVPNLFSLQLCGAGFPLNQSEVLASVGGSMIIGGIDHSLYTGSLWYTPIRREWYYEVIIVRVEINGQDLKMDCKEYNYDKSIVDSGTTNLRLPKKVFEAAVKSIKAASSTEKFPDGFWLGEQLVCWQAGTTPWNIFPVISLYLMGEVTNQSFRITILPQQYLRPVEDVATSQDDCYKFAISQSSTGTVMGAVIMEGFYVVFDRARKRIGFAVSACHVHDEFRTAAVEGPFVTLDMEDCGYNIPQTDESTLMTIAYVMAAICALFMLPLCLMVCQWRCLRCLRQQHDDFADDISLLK

Compound	% Inhibition (FS) 0.3 μM (0.3 μM test compound) [%]	% Inhibition (FS) 1 μM (1 μM test compound) [%]	% Inhibition (FS) 3 μM (3 μM test compound) [%]	further results
CN(Cc1csc(-c2ccccc2)n1)C(=O)CC[C@@H](C1CCCCC1)N1Cc2cc(-c3ccccc3F)ccc2N=C1N [Compound 722]	–	–	–	% Inhibition (FS) (0.3 μM test compound): 35%; % Inhibition (FS) (1 μM test compound): 35%; % Inhibition (FS) (3 μM test compound): 78%
NC1=Nc2ccc(-c3ccccc3F)cc2CN1CCNC(=O)C1CCOCC1 [Compound 687]	–	–	–	% Inhibition (FS) (0.3 μM test compound): <30%; % Inhibition (FS) (1 μM test compound): 50%; % Inhibition (FS) (3 μM test compound): 87%
N#Cc1cccc(C(=O)NCCN2Cc3cc(Br)ccc3N=C2N)c1 [Compound 807]	–	–	–	inhibition at 0.3 µM [1]: < 30%; inhibition at 1 µM [2]: < 30%; inhibition at 3 µM [3]: < 30%
CC(C)(C)C(=O)NCCN1Cc2cc(-c3ccncc3)ccc2N=C1N [Compound 573]	<30	<30	<30	–
CN(C(=O)c1cccc(CN2Cc3cc(Oc4ccccc4-n4cccc4)ccc3N=C2N)c1)C1CCCCC1 [Compound 471]	<30	<30	38	–
COc1ccccc1-c1ccc2c(c1)CN(CCNC(=O)C1CCOCC1)C(N)=N2 [Compound 697]	–	–	–	% Inhibition (FS) (0.3 μM test compound): <30%; % Inhibition (FS) (1 μM test compound): <30%; % Inhibition (FS) (3 μM test compound): 63%
CN(C(=O)c1cccc(CN2Cc3cc(-c4cccc(-c5ccccc5)c4)ccc3N=C2N)c1)C1CCCCC1 [Compound 171]	<30	31	42	–
CN(C(=O)CC(c1ccccc1)N1Cc2cc(F)ccc2N=C1N)C1CCCCC1 (centres unmarked) [Compound 803]	–	–	–	inhibition at 0.3 µM [1]: < 30%; inhibition at 1 µM [2]: < 30%; inhibition at 3 µM [3]: < 30%
CC(=O)Nc1ccc(Sc2ccc3c(c2)CN(Cc2cccc(C(=O)N(C)C4CCCCC4)c2)C(N)=N3)cc1 [Compound 417]	<30	<30	78	–
CCCC(CNC(=O)C12CC3CC(CC(C3)C1)C2)N1Cc2cc(Oc3ccccc3)ccc2N=C1N (centres unmarked) [Compound 555]	–	–	–	% Inhibition (FS) 0.3 μM (0.3 μM test compound, 0.3 µM): <30%; % Inhibition (FS) 1 μM (1 μM test compound, 1 µM): <30%; % Inhibition (FS) 3 μM (3 μM test compound, 3 µM): 46%
COC(=O)Cc1cccc(CN(C)C(=O)CCC(C2CCCCC2)N2Cc3cc(Oc4ccccc4)ccc3N=C2N)c1 (centres unmarked) [Compound 775]	–	–	–	% Inhibition (FS) (0.3 μM test compound): <30%; % Inhibition (FS) (1 μM test compound): 62%; % Inhibition (FS) (3 μM test compound): 111%
CN(C(=O)c1cccc(C(CC2CCCCC2)N2Cc3cc(Oc4ccccc4)ccc3N=C2N)c1)C1CCCCC1 (centres unmarked) [Compound 310]	<30	<30	57	–
CN(C)c1cccc(Oc2ccc3c(c2)CN(Cc2cccc(C(=O)N(C)C4CCCCC4)c2)C(N)=N3)c1 [Compound 479]	<30	<30	81	–
CC(CC(=O)NCCN1Cc2cc(-c3ccccc3F)ccc2N=C1N)C(F)(F)F (centres unmarked) [Compound 681]	–	–	–	% Inhibition (FS) (0.3 μM test compound): 67%; % Inhibition (FS) (1 μM test compound): 100%; % Inhibition (FS) (3 μM test compound): 103%
NC1=Nc2ccc(Oc3ccccc3)cc2CN1C1CCN(C(=O)C2CCCCC2)CC1 [Compound 522]	–	–	–	inhibition at 0.3 µM [4]: < 30%; inhibition at 1 µM [5]: < 30%; inhibition at 3 µM [6]: 79%
CN(C(=O)c1cccc(CN2Cc3cc(Nc4ccc(C5CCCCC5)cc4)ccc3N=C2N)c1)C1CCCCC1 [Compound 437]	<30	<30	38	–
NC1=Nc2ccc(Br)cc2CN1CCC(=O)NC12CC3CC(CC(C3)C1)C2 [Compound 804]	–	–	–	inhibition at 0.3 µM [1]: < 30%; inhibition at 1 µM [2]: < 30%; inhibition at 3 µM [3]: < 30%
CCCCCC(CCC(=O)NC1CCCCCC1)N1Cc2cc(Oc3ccccc3)ccc2N=C1N (centres unmarked) [Compound 150]	<30	<30	90	–
CN(CCCCC(=O)O)C(=O)CC[C@@H](C1CCCCC1)N1Cc2cc(Oc3ccccc3)ccc2N=C1N [Compound 752]	–	–	–	% Inhibition (FS) (0.3 μM test compound): 45%; % Inhibition (FS) (1 μM test compound): 81%; % Inhibition (FS) (3 μM test compound): 109%

Compound	% Inhibition (FS) 0.3 μM (0.3 μM test compound) [%]	% Inhibition (FS) 1 μM (1 μM test compound) [%]	% Inhibition (FS) 3 μM (3 μM test compound) [%]	further results
NC1=Nc2ccc(Oc3ccccc3)cc2CN1C(CC(=O)NC1C2CC3CC(C2)CC1C3)C1CCCCC1 (centres unmarked) [Compound 314]	<30	45	85	–
CC(C)CCC(=O)N1CCCC(N2Cc3cc(Oc4ccccc4)ccc3N=C2N)C1 (centres unmarked) [Compound 613]	36	31	<30	–
CC(C)(C)C1CCC(C(=O)NCCN2Cc3cc(Oc4ccccc4)ccc3N=C2N)CC1 (centres unmarked) [Compound 184]	<30	<30	31	–
Cc1cc(C(=O)NCCN2Cc3cc(-c4ccccc4)ccc3N=C2N)c(C)o1 [Compound 586]	<30	<30	59	–
CN(C(=O)CCC(C1CCCCC1)N1Cc2cc(Oc3ccccc3)ccc2N=C1N)C(COCc1ccccc1)C(=O)O (centres unmarked) [Compound 781]	–	–	–	% Inhibition (FS) (0.3 μM test compound): 106%; % Inhibition (FS) (1 μM test compound): 109%; % Inhibition (FS) (3 μM test compound): 121%
Cc1ccccc1-c1ccc2c(c1)CN(CCNC(=O)C1CCC(C(F)(F)F)CC1)C(N)=N2 (centres unmarked) [Compound 694]	–	–	–	% Inhibition (FS) (0.3 μM test compound): <30%; % Inhibition (FS) (1 μM test compound): <30%; % Inhibition (FS) (3 μM test compound): 84%
NC1=Nc2ccc(-c3cnc4ccccc4c3)cc2CN1CCNC(=O)C12CC3CC(CC(C3)C1)C2 [Compound 672]	–	–	–	% Inhibition (FS) (0.3 μM test compound): <30%; % Inhibition (FS) (1 μM test compound): <30%; % Inhibition (FS) (3 μM test compound): <30%
CCCCc1ccc(C(=O)NCCN2Cc3cc(Oc4ccccc4)ccc3N=C2N)cc1 [Compound 157]	–	–	<30	% Inhibition (FS) 10 μM (10 μM test compound): 50%
NC1=Nc2ccc(Oc3ccccc3)cc2CN1Cc1cccc(C(=O)NC2CCCCC2)c1 [Compound 451]	<30	<30	<30	–
CN(C(=O)c1cccc(CN2Cc3cc(OC4CCCC4)ccc3N=C2N)c1)C1CCCCC1 [Compound 520]	<30	<30	33	–
CN(C(=O)c1cccc(CN2Cc3cc(OCC4CCCC4)ccc3N=C2N)c1)C1CCCCC1 [Compound 521]	<30	<30	<30	–
N#Cc1cccc(C(=O)NCCN2Cc3cc(-c4cncnc4)ccc3N=C2N)c1 [Compound 567]	<30	<30	<30	–
CN(C(=O)c1cccc(CN2Cc3cc(-c4ccccc4-c4ccccc4)ccc3N=C2N)c1)C1CCCCC1 [Compound 321]	−33	<30	<30	–
CN(C(=O)c1cccc(CN2Cc3cc(Sc4cccc5ccccc45)ccc3N=C2N)c1)C1CCCCC1 [Compound 414]	<30	<30	27	–
CCOC(=O)C1CCC(N(C)C(=O)CCC(C2CCCCC2)N2Cc3cc(Oc4ccccc4)ccc3N=C2N)CC1 (centres unmarked) [Compound 737]	–	–	–	% Inhibition (FS) (0.3 μM test compound, 0.3 µM): 22%; % Inhibition (FS) (1 μM test compound, 1 µM): 34%; % Inhibition (FS) (3 μM test compound, 3 µM): 97%
CC(=O)c1cccc(-c2ccc3c(c2)CN(CCNC(=O)CC2CCCC2)C(N)=N3)c1 [Compound 582]	<30	<30	<30	–
CN(C(=O)c1cccc(CN2Cc3cc(-c4cn[nH]c4)ccc3N=C2N)c1)C1CCCCC1 [Compound 161]	<30	<30	<30	–
NC1=Nc2ccc(Oc3ccccc3)cc2CN1C(CC(=O)NC1CC2CCC1C2)C1CCCCC1 (centres unmarked) [Compound 400, 3-(2-Amino-6-phenoxy-4H-quinazolin-3-yl)-N-bicyclo[2.2.1]hept-2-yl-3-cyclohexyl-propionamide]	–	–	–	inhibition at 0.3 µM [4]: < 30%; inhibition at 1 µM [5]: < 30%; inhibition at 3 µM [6]: 94%
CN(C(=O)CCC(C1CCCCC1)N1Cc2cc(Oc3ccccc3)ccc2N=C1N)C1CCC(c2nn[nH]n2)CC1 (centres unmarked) [Compound 770]	–	–	–	% Inhibition (FS) (0.3 μM test compound): <30%; % Inhibition (FS) (1 μM test compound): <30%; % Inhibition (FS) (3 μM test compound): <30%

Continued, in another order:

% Inhibition (FS) 0.3 μM (0.3 μM test compound) [%]	% Inhibition (FS) 1 μM (1 μM test compound) [%]	% Inhibition (FS) 3 μM (3 μM test compound) [%]	Compound	further results
<30	51	96	NC1=Nc2ccc(-c3ccccc3Cl)cc2CN1CCNC(=O)C12CC3CC(CC(C3)C1)C2 [Compound 651]	–
39	74	104	CCCCC(CC)C(=O)NCCN1Cc2cc(-c3ccccc3F)ccc2N=C1N (centres unmarked) [Compound 648]	–
